Each compound was assayed against T1, human Smo (Homo sapiens, UniProt Q99835) (assay: hSmo BODIPY-cyclopamine competitive binding assay). Details: inhibition of BODIPY-cyclopamine fluorescence, competitive displacement, HEK 293 cells over-expressing human Smo; single IC50 determination; read-out: Smo-BCB IC50.
T1 construct: HA; expressed in transfected cells; host or cells: HEK293
Procedure: To determine whether the Hh inhibitory activities of the target compounds were derived from their inhibition to the Smo receptor, a binding assay was used.
3.3.2. Hsmo-BC Binding Assay
BODIPY-cyclopamine binding assay is a fluorescence-based assay used to analyze the binding of Smo agonists/antagonists. HEK293 cells were transfected with pCMV-HA/hSmo using Lipofectamine reagent (Lipofectamine™ 2000, Invitrogen, Carlsbad, CA, USA). Briefly, 50 μL of Lipofectamine 2000 and 22.5 μg of pCMV-HA/hSmo were each incubated in 1.5 mL of Opti-MEMI media (Invitrogen) at room temperature for 30 min and then was added to 1 × 10^6 HeK293 cells in 25 mL of culture medium in a 75 cm^2 cell culture flask. After overnight incubation under 5% CO2 at 37 °C, cells were detached using Versene (Invitrogen) and resuspended in culture medium. The suspended cells were added to a 96-well plate at 10,000 cells/well. After removing the media from each well, the cells were fixed with 4% paraformaldehyde (PFA) for 20 min at room temperature. Then the PFA buffer was removed, and the cells were incubated with 4′,6-diamidino-2-phenylindole (DAPI) ([…]) for 10 min, followed by washing with PBS four times. […] After incubation, the cells were washed five times with PBST (PBS buffer supplied with 0.05% Tween-20). The fluorescence images were automatically captured and analyzed by a high content fluorescence imaging system (Arrayscan VTI, Thermo, Waltham, MA, USA). Data was expressed as a percentage of fluorescence intensity observed with BODIPY-cyclopamine alone. […] IC50 values were calculated with GraphPad Prism software using the sigmoidal dose-response function.

T1 sequence (Q99835 28-787): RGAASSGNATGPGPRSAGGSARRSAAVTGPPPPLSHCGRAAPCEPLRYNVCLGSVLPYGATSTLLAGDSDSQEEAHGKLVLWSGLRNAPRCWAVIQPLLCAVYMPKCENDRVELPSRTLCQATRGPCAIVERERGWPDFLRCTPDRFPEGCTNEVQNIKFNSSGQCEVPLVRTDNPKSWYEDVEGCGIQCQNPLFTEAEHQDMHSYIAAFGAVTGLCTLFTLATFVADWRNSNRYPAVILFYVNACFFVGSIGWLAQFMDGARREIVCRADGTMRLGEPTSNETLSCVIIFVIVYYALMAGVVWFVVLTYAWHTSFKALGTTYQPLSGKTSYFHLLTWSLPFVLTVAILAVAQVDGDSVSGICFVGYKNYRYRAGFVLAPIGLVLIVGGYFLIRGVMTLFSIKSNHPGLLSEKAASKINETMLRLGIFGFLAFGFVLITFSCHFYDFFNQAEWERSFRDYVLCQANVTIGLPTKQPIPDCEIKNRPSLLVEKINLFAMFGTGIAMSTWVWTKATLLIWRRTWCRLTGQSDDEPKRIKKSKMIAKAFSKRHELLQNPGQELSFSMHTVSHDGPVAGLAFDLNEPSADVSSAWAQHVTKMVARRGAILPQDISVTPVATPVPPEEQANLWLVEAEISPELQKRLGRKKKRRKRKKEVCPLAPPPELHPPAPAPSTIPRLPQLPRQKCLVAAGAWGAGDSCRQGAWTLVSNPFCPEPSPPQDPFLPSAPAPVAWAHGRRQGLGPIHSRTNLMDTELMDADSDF

| IC50 [µM] | Compound |
| --- | --- |
| 2.41 ± 0.01 | COc1cc(OC)cc(C(=O)Nc2cccc(N3CCC(C(=O)N4CCN(C)CC4)CC3)c2)c1 [Compound 5l, 3,5-Dimethoxy-N-(3-(4-(4-methylpiperazine-1-carbonyl)piperidin-1-yl)phenyl)benzamide] |
| 6.35 ± 0.07 | CN1CCN(C(=O)C2CCN(c3cccc(NC(=O)c4cccnc4)c3)CC2)CC1 [Compound 5n, N-(3-(4-(4-methylpiperazine-1-carbonyl)piperidin-1-yl)phenyl)nicotinamide] |
| 6.23 ± 0.12 | CN1CCN(C(=O)C2CCN(c3cccc(NC(=O)c4ccc(S(C)(=O)=O)cc4Cl)c3)CC2)CC1 [Compound 5o, 2-Chloro-N-(3-(4-(4-methylpiperazine-1-carbonyl)piperidin-1-yl)phenyl)-4-(methylsulfonyl)benzamide] |
| 1.61 ± 0.02 | CN1CCN(C(=O)C2CCN(c3cccc(NC(=O)c4cccc(-c5ccccn5)c4)c3)CC2)CC1 [Compound 5q, N-(3-(4-(4-methylpiperazine-1-carbonyl)piperidin-1-yl)phenyl)-3-(pyridin-2-yl)benzamide] |

These compounds were tested on Hh signaling pathway (Gli-luc reporter, NIH3T3 cells) (assay: NIH3T3-Gli-luciferase reporter assay (Gli-Luc dual luciferase)). Details: Mus musculus; NIH3T3 cells transfected with Gli luciferase reporter, stimulated with 10 nM SAG, 24 h; average of triplicate separate determinations.
Type: cell-based, Mouse
Procedure: In the Hh signaling pathway activity test, we used the Gli-Luc double luciferase detection system, which is widely used to test the inhibitory activity of the Hh signaling pathway. […]
3.3.1. NIH3T3-Gli-Luciferase Reporter Assay
NIH3T3 cells (Chinese Academy of Sciences cell bank, Mouse embryonic fibroblast cell line) were grown in Dulbecco’s Modified Eagle Media (DMEM) media supplemented with 10% fetal bovine serum (FBS) at 37 °C with a humidified 5% CO2 atmosphere.
NIH3T3 cells were plated one day before transfection. To prepare NIH3T3 cells, enough cells were collected to complete the transfection experiment, and centrifuged for 5 min at 300× g. The cell pellet was resuspended to an appropriate concentration in DMEM media with 0.5% FBS, then 5000 cells were plated in 100 μL per well of a 96-well plate.
The NIH3T3 cells were transfected with the Glioma-associated oncogene (GLI)-reporter, negative control, and positive control constructs (QIAGEN, Cat# CCS-6030L) by using Fugene HD transfection reagents (Promega, Cat. No. E2311, Madison, WI). The FuGENER HD Transfection Reagent/DNA mixture was incubated for 15 min at room temperature. A total of 10 μL of the FuGENER HD Transfection Reagent/DNA mixture was added per well to the 96-well plate containing 100 μL cells in growth medium. The mixture was mixed gently using a plate shaker. Cells were returned to the incubator for 24–48 h. Transfection efficiency was estimated by observing green fluorescent protein (GFP) expression in the positive control wells by fluorescence microscopy.
[…] Cells were incubated with SAG and compounds for 24 h. To study the effect of test compounds, cells were harvested 24 h after treatment to perform the dual-luciferase assay.
Dual-Luciferase assays were conducted using the Dual-Luciferase® Assay System (Promega, Cat# E1910) according to Promega’s protocol. Each system included: 5X Passive Lysis Buffer (PLB), Luciferase Assay Buffer II, Luciferase Assay Substrate, and 50X Stop & Glo® Substrate and Stop & Glo® Buffer.
After 24 h treatment, the assay medium was removed and cells were washed with PBS buffer, and then 20 μL of 1XPLB was added to each well. The culture plates were incubated on a plate shaker with gentle shaking at room temperature for 15 min. A total of 100 μL LARII was added to each well, and the firefly luciferase luminescence signal was measured using an EnVision® 2104 Multilabel Reader (PerkinElmer, Waltham, MA, USA), with a measure time of 10s. A total of 100 μL Stop & Glo® Reagent was added to each well, and Renilla luciferase luminescence signal was measured using an EnVision® 2104 Multilabel Reader (PerkinElmer); the measure time was 10 s.
Relative Luciferase Units (RLU) Calculation
Firefly: Renilla activity ratios were generated from experimental and control transfections. Ratios from transcription factor-responsive reporter transfections were divided by ratios from negative control transfections to obtain relative luciferase units. […]
The histogram of % inhibition of compounds was generated by using GraphPad Prism 5.0 software (GraphPad Software Inc., La Jolla, CA, USA).

| Compound | IC50 [µM] |
| --- | --- |
| CN1CCN(C(=O)C2CCN(c3cccc(NC(=O)c4ccccc4)c3)CC2)CC1 [Compound 5a, N-(3-(4-(4-Methylpiperazine-1-carbonyl)piperidin-1-yl)phenyl)benzamide] | 28.52 ± 0.02 |
| CN1CCN(C(=O)C2CCN(c3cccc(NC(=O)c4ccc(Cl)cc4)c3)CC2)CC1 [Compound 5b, 4-Chloro-N-(3-(4-(4-methylpiperazine-1-carbonyl)piperidin-1-yl)phenyl)benzamide] | 12.47 ± 0.11 |
| CN1CCN(C(=O)C2CCN(c3cccc(NC(=O)c4cccc(Cl)c4)c3)CC2)CC1 [Compound 5c, 3-Chloro-N-(3-(4-(4-methylpiperazine-1-carbonyl)piperidin-1-yl)phenyl)benzamide] | 14.63 ± 0.01 |
| CN1CCN(C(=O)C2CCN(c3cccc(NC(=O)c4ccc(F)cc4)c3)CC2)CC1 [Compound 5d, 4-Fluoro-N-(3-(4-(4-methylpiperazine-1-carbonyl)piperidin-1-yl)phenyl)benzamide] | 15.51 ± 0.03 |
| CN1CCN(C(=O)C2CCN(c3cccc(NC(=O)c4cccc(F)c4)c3)CC2)CC1 [Compound 5e, 3-Fluoro-N-(3-(4-(4-methylpiperazine-1-carbonyl)piperidin-1-yl)phenyl)benzamide] | 17.59 ± 0.15 |
| CN1CCN(C(=O)C2CCN(c3cccc(NC(=O)c4cccc([N+](=O)[O-])c4)c3)CC2)CC1 [Compound 5f, N-(3-(4-(4-methylpiperazine-1-carbonyl)piperidin-1-yl)phenyl)-3-nitrobenzamide] | 53.34 ± 0.07 |
| CN1CCN(C(=O)C2CCN(c3cccc(NC(=O)c4ccc([N+](=O)[O-])cc4)c3)CC2)CC1 [Compound 5g, N-(3-(4-(4-methylpiperazine-1-carbonyl)piperidin-1-yl)phenyl)-4-nitrobenzamide] | 60.56 ± 0.04 |
| CN1CCN(C(=O)C2CCN(c3cccc(NC(=O)c4ccc(Br)cc4)c3)CC2)CC1 [Compound 5h, 4-Bromo-N-(3-(4-(4-methylpiperazine-1-carbonyl)piperidin-1-yl)phenyl)benzamide] | 7.85 ± 0.01 |
| Cc1ccccc1C(=O)Nc1cccc(N2CCC(C(=O)N3CCN(C)CC3)CC2)c1 [Compound 5k, 2-Methyl-N-(3-(4-(4-methylpiperazine-1-carbonyl)piperidin-1-yl)phenyl)benzamide] | 16.61 ± 0.12 |
| COc1cc(OC)cc(C(=O)Nc2cccc(N3CCC(C(=O)N4CCN(C)CC4)CC3)c2)c1 [Compound 5l, 3,5-Dimethoxy-N-(3-(4-(4-methylpiperazine-1-carbonyl)piperidin-1-yl)phenyl)benzamide] | 1.83 ± 0.03 |
| CN1CCN(C(=O)C2CCN(c3cccc(NC(=O)c4ccccc4Br)c3)CC2)CC1 [Compound 5m, 2-Bromo-N-(3-(4-(4-methylpiperazine-1-carbonyl)piperidin-1-yl)phenyl)benzamide] | 10.49 ± 0.05 |
| CN1CCN(C(=O)C2CCN(c3cccc(NC(=O)c4cccnc4)c3)CC2)CC1 [Compound 5n, N-(3-(4-(4-methylpiperazine-1-carbonyl)piperidin-1-yl)phenyl)nicotinamide] | 5.32 ± 0.13 |
| CN1CCN(C(=O)C2CCN(c3cccc(NC(=O)c4ccc(S(C)(=O)=O)cc4Cl)c3)CC2)CC1 [Compound 5o, 2-Chloro-N-(3-(4-(4-methylpiperazine-1-carbonyl)piperidin-1-yl)phenyl)-4-(methylsulfonyl)benzamide] | 4.28 ± 0.01 |
| CN1CCN(C(=O)C2CCN(c3cccc(NC(=O)c4ccc(S(C)(=O)=O)cc4)c3)CC2)CC1 [Compound 5p, N-(3-(4-(4-methylpiperazine-1-carbonyl)piperidin-1-yl)phenyl)-4-(methylsulfonyl)benzamide] | 3.43 ± 0.08 |
| CN1CCN(C(=O)C2CCN(c3cccc(NC(=O)c4cccc(-c5ccccn5)c4)c3)CC2)CC1 [Compound 5q, N-(3-(4-(4-methylpiperazine-1-carbonyl)piperidin-1-yl)phenyl)-3-(pyridin-2-yl)benzamide] | 1.26 ± 0.03 |
| CS(=O)(=O)N1CCN(C(=O)Cc2ccc(Cl)c(NC(=O)c3ccc(Cl)cc3)c2)CC1 [Compound 8a, 4-Chloro-N-(2-chloro-5-(2-(4-(methylsulfonyl)piperazin-1-yl)-2-oxoethyl)phenyl)benzamide] | 6.88 ± 0.13 |
| O=C(Nc1cc(CC(=O)N2CCN(S(=O)(=O)c3ccc(F)cc3)CC2)ccc1Cl)c1ccc(Cl)cc1 [Compound 8b, 4-Chloro-N-(2-chloro-5-(2-(4-((4-fluorophenyl)sulfonyl)piperazin-1-yl)-2-oxoethyl)phenyl)benzamide] | 12.7 ± 0.16 |
| CCCCS(=O)(=O)N1CCN(C(=O)Cc2ccc(Cl)c(NC(=O)c3ccc(Cl)cc3)c2)CC1 [Compound 8c, N-(5-(2-(4-(butylsulfonyl)piperazin-1-yl)-2-oxoethyl)-2-chlorophenyl)-4-chlorobenzamide] | 8.62 ± 0.09 |
| COc1cc(C(=O)NC(=S)Nc2cccc(NC(=O)c3ccccc3)c2)cc(OC)c1OC [MRT10, reference compound] | 2.15 |
| CS(=O)(=O)c1ccc(C(=O)Nc2ccc(Cl)c(-c3ccccn3)c2)c(Cl)c1 [Vismodegib, reference compound] | 0.025 |

Same assay, conditions: NIH3T3 cells transfected with Gli luciferase reporter, stimulated with 10 nM SAG, 24 h; average of triplicate separate determinations

| Compound | IC50 [µM] |
| --- | --- |
| 3-Methoxy-N-(3-(4-(4-methylpiperazine-1-carbonyl)piperidin-1-yl)phenyl)benzamide [Compound 5j] | 4.74 ± 0.02 |
| 3-Methyl-N-(3-(4-(4-methylpiperazine-1-carbonyl)piperidin-1-yl)phenyl)benzamide [Compound 5i] | 16.32 ± 0.05 |

From article PMC6017536, “Synthesis and Smo Activity of Some Novel Benzamide Derivatives” (Molecules : A Journal of Synthetic Chemistry and Natural …, 2017)
